From patent US4317768A, “Dihydropyridine derivatives as stabilizers for vinyl chloride polymers” (priority 1977, dated 1982)
Entries after “also recorded” stand apart in the source; their conditions may differ.

Assays:
[1] = Photostabilizing power, PVC plates exposed to the sun, GARDNER scale
Protocol: The photostabilizing power of the compounds of the invention was studied by exposing to the sun polyvinyl chloride plates which had been stabilized either by a dihydropyridine of the invention or by 2-phenyl-indole, or again by 2-(3'-methoxy-4'-hydroxy)-indole. This last product is an extremely valuable thermostabilizer for thermoplastic resins and is described in British Pat. No. 1,489,685.
The resin given hereunder was prepared by mixing on cylinders at 160° C.:
The plates of stabilized polyvinyl chloride, together with a plate which had not been stabilized, were stood in the sun under the same conditions and at the same time. Their colour was measured after 6 hours and 12 hours of exposure.
The coloration of the plates was determined according to two methods:
On the plates themselves, following the GARDNER scale, as in the section on thermostability,
The sign + means that the coloration lies between the lower unit and the upper half-unit. Thus, 3+ means that the coloration lies between 3 and 3.5. Similarly, the sign - means that the coloration lies between the lower half-unit and the upper unit.

[2] = Static thermostability (GARDNER method), rigid PVC sheets, 185° C., 0.3 part stabilizer
How it was run: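 Rigid PVC sheets, calendered at 160° C with 0.3 part stabilizer and usual additives, were heated at 185° C. Samples came out every 6 min to 24 min, then every 3 min up to 42 min or carbonization, and colour was scored on the GARDNER scale.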

[3] = Comparison with stabilizer G1, 0.1 part, 185° C.
Protocol: A test was also carried out with the following compound:
Another test was made with the same resin but containing 0.1 part of stabilizer.

[4] = Comparison with 2-phenyl-indole, vinyl chloride-vinylidene chloride co-polymer, 210° C.; conditions: 0.3 part
Protocol: A second test was made using the following compound:
The sheets were heated in a ventilated oven at 210° C. and the following results were obtained: […]

[5] = Thermostability, flexible co-polymer (c), Metrastat oven 160° C.; conditions: 0.3 part
Protocol: (§1) The study of the static thermostability of vinyl co-polymers was carried out according to the GARDNER method described above and, also in a more detailed manner in British Patent No. 1,489,685.
(c) Flexible co-polymer vinyl chloride-vinyl acetate
(§2) The following compound was prepared:
The sheets were heated in a Metrastat oven at 160° C. and the following results were obtained: […]

[6] = Thermostability, flexible co-polymer (b), Metrastat oven 160° C.; conditions: 0.2 part
Protocol: as §1
(b) Flexible co-polymer vinyl chloride-vinyl acetate.
as §2
The resin was allowed to gel for 5 minutes at 120° C. and the sheets were heated at 160° C. in a Metrastat oven.

[7] = Photostabilizing power, sheets exposed to the sun, rigid co-polymer (b)
Protocol: (§3) The sheets were exposed to the sun and their colorations were also determined according to the GARDNER method.

[8] = Polarographic study of the oxidation potential; assay type: physicochemical; conditions: acetonitrile, 0.1 M lithium perchlorate, vitrous carbon electrode, calomel reference
How it was run: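 Oxidation potential by polarography on a rotating vitreous carbon electrode (2,500 r.p.m.) with calomel reference and platinum counter electrode, in 0.1 M lithium perchlorate in dry acetonitrile. Scan 0 to 2 V at 10 mV/second; compounds at about 0.3×10^-3 mol/liter.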

[9] = Photostabilizing power, sheets exposed to the sun, co-polymer (a)
Protocol: as §3

[10] = Static thermostability (GARDNER method), rigid PVC sheets, 210° C., 0.3 part stabilizer; conditions: for coloration of the resins, in words: 0 to 3 minutes
How it was run: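 Rigid sheets calendered at 160° C. from powdered PVC resin with 0.3 part by weight stabilizer (dihydropyridine or 2-phenyl-indole reference) plus usual ingredients. Sheets heated in oven at 210° C., removed every three minutes over 21 minutes until incipient carbonization. Coloration scored against GARDNER scale reference figures.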

[11] = Stabilization of plastified vinyl resins (pressed plates); conditions: plastified resin
Protocol: This study was carried out by pressing plates from sheets which had been mixed for 5 minutes at 180° C., the pressing also lasting 5 minutes but at 170° C.
The same parameters as hereabove were studied, namely the duration of the stability of the colour, the duration of the thermostability and the colour of the pressed plate.

C=CCOC(=O)C1=C(C)NC(C)=C(C(=O)OCC=C)C1 [Compound 1, 2,6-Dimethyl-3,5-dicarboallyloxy-1,4-dihydropyridine]
Coloration of the plates GARDNER ([1]; exposure to sun 0): 1 | Coloration of the plates GARDNER ([1]; exposure to sun 6h): 1 | Coloration of the plates GARDNER ([1]; exposure to sun 12h): 1.5 | coloration, GARDNER scale ([2]; 0 min): 1 | coloration, GARDNER scale ([2]; 6 min): 1 | coloration, GARDNER scale ([2]; 12 min): 3 | coloration, GARDNER scale ([2]; 18 min): 3 | coloration, GARDNER scale ([2]; 24 min): 5 | coloration, GARDNER scale ([2]; 27 min): 7 | coloration, GARDNER scale ([2]; 30 min): 10 | coloration, GARDNER scale ([2]; 33 min): 10.5 | coloration, GARDNER scale ([2]; 36 min): 11 | coloration, GARDNER scale ([2]; 39 min): 16 | coloration, GARDNER scale ([2]; 42 min): Burnt | coloration, GARDNER scale ([3]; 0 min): 1 | coloration, GARDNER scale ([3]; 2 min): 1 | coloration, GARDNER scale ([3]; 4 min): 2 | coloration, GARDNER scale ([3]; 6 min): 4 | coloration, GARDNER scale ([3]; 8 min): 8 | coloration, GARDNER scale ([3]; 10 min): 11 | coloration, GARDNER scale ([3]; 12 min): 12 | coloration, GARDNER scale ([3]; 14 min): 13 | coloration, GARDNER scale ([4]; 0 min): 1 | coloration, GARDNER scale ([4]; 3 min): 1 | coloration, GARDNER scale ([4]; 6 min): 2 | coloration, GARDNER scale ([4]; 9 min): 4 | coloration, GARDNER scale ([4]; 12 min): 10 | coloration, GARDNER scale ([5]; 0 min): 1 | coloration, GARDNER scale ([5]; 10 min): 1 | coloration, GARDNER scale ([5]; 20 min): 2 | coloration, GARDNER scale ([5]; 30 min): 4 | coloration, GARDNER scale ([5]; 40 min): 5.5 | coloration, GARDNER scale ([5]; 50 min): 6 | coloration, GARDNER scale ([5]; 60 min): 7 | coloration, GARDNER scale ([6]; 0 min): 1 | coloration, GARDNER scale ([6]; 30 min): 2 | coloration, GARDNER scale ([6]; 40 min): 6 | coloration, GARDNER scale ([6]; 50 min): 12 | coloration, GARDNER scale ([6]; 60 min): 15 | Colour in GARDNER degrees ([7]; After 24 hours): 2 GARDNER degrees | Colour in GARDNER degrees ([7]; Time 0): 1 GARDNER degrees | Oxidation potential [8]: 0.75 ± 0.01 volts | Colour in GARDNER degrees ([9]; After 24 hours): 1 GARDNER degrees | Colour in GARDNER degrees ([9]; Time 0): 1 GARDNER degrees | coloration, GARDNER scale ([10]; 0 min): 1 | coloration of the resins, in words [10]: considerably less | coloration, GARDNER scale ([10]; 3 min): 1 | thermostabilizing power compared to 2-phenyl-indole, in words ([10]; 210° C.): greatly superior to 2-phenyl-indole | coloration, GARDNER scale ([10]; 6 min): 2 | coloration, GARDNER scale ([10]; 9 min): 4 | coloration, GARDNER scale ([10]; 12 min): 7 | coloration, GARDNER scale ([10]; 15 min): Burnt | influence on stability / basic colour of the plate, in words [11]: favourable influence on the stability of the plate; also recorded: favourable influence on the basic colour

CC1=C(C(=O)OCc2ccccc2)CC(C(=O)OCc2ccccc2)=C(C)N1 [Compound 21, 2,6-Dimethyl-3,5-dicarbobenzyloxy-1,4-dihydropyridine]
Coloration of the plates GARDNER ([1]; exposure to sun 0): 1 | Coloration of the plates GARDNER ([1]; exposure to sun 6h): 1 | Coloration of the plates GARDNER ([1]; exposure to sun 12h): 1.5 | coloration, GARDNER scale ([2]; 0 min): 1 | coloration, GARDNER scale ([2]; 6 min): 1 | coloration, GARDNER scale ([2]; 12 min): 2 | coloration, GARDNER scale ([2]; 18 min): 10 | coloration, GARDNER scale ([2]; 24 min): 12 | coloration, GARDNER scale ([2]; 27 min): 12 | coloration, GARDNER scale ([2]; 30 min): 13 | coloration, GARDNER scale ([2]; 33 min): 14 | coloration, GARDNER scale ([2]; 36 min): Burnt | coloration, GARDNER scale ([3]; 0 min): 1 | coloration, GARDNER scale ([3]; 2 min): 1 | coloration, GARDNER scale ([3]; 4 min): 2 | coloration, GARDNER scale ([3]; 6 min): 4 | coloration, GARDNER scale ([3]; 8 min): 11 | coloration, GARDNER scale ([3]; 10 min): 13 | coloration, GARDNER scale ([3]; 12 min): 17 | coloration, GARDNER scale ([4]; 0 min): 1.5 | coloration, GARDNER scale ([4]; 3 min): 2 | coloration, GARDNER scale ([4]; 6 min): 2 | coloration, GARDNER scale ([4]; 9 min): 3 | coloration, GARDNER scale ([4]; 12 min): 7 | coloration, GARDNER scale ([4]; 15 min): 15 | coloration, GARDNER scale ([5]; 0 min): 1 | coloration, GARDNER scale ([5]; 10 min): 1 | coloration, GARDNER scale ([5]; 20 min): 2 | coloration, GARDNER scale ([5]; 30 min): 5 | coloration, GARDNER scale ([5]; 40 min): 6 | coloration, GARDNER scale ([5]; 50 min): 7 | coloration, GARDNER scale ([5]; 60 min): 12 | coloration, GARDNER scale ([6]; 0 min): 1 | coloration, GARDNER scale ([6]; 30 min): 1 | coloration, GARDNER scale ([6]; 40 min): 3 | coloration, GARDNER scale ([6]; 50 min): 8 | coloration, GARDNER scale ([6]; 60 min): 15 | Colour in GARDNER degrees ([7]; After 24 hours): 3.5 GARDNER degrees | Colour in GARDNER degrees ([7]; Time 0): 1.5 GARDNER degrees | Oxidation potential [8]: 0.73 ± 0.01 volts | Colour in GARDNER degrees ([9]; After 24 hours): 1 GARDNER degrees | Colour in GARDNER degrees ([9]; Time 0): 1 GARDNER degrees | coloration, GARDNER scale ([10]; 0 min): 1 | coloration of the resins, in words [10]: considerably less | coloration, GARDNER scale ([10]; 3 min): 1 | coloration, GARDNER scale ([10]; 6 min): 2 | coloration, GARDNER scale ([10]; 9 min): 3 | coloration, GARDNER scale ([10]; 12 min): 5.5 | coloration, GARDNER scale ([10]; 15 min): 14 | coloration, GARDNER scale ([10]; 18 min): Burnt
